Experiments:
cleaved PARP = test: Immunoblot of cleaved PARP (apoptotic marker) in SNU-398 cells; format: cell-based, human; conditions: SNU-398 HCC cells, 24 h
Method: (§1) RIPA buffer containing freshly added protease inhibitors (2 mM PMSF) and protease inhibitor cocktail was used for cell lysis. The lysed cells were incubated for 10 min on ice and subsequently centrifuged at 4° C. for 10 min at 14,000 rpm. The protein concentrations of cell lysates were assessed using Bradford Assay as per manufacturer's instructions. The samples were denatured using 4× Sample buffer at 95° C. for 5 min. The samples were size resolved using polyacrylamide gel (8%) and Mini-PROTEAN Tetra Cell module. The size-resolved proteins were transferred onto PVDF via electroblotting using Mini Trans-Blot® module. The membrane was blocked using 5% BSA in TBST. The membrane was incubated with appropriate primary antibody (overnight) and secondary antibody (1 h). Immobilon Crescendo Western HRP substrate was used for signal development and images were acquired using darkroom development techniques.

H661 cells = test: CellTiter-Glo viability assay, H661; format: cell-based; conditions: Homo sapiens
Method: Cells were plated in RPMI culture media (40 μL) in 384-well white, flat-bottom plates (Corning) and incubated at 37° C. in a humidified atmosphere of 5% CO2 overnight. The numbers of cells per well were 1,500 for SNU-398 and SNU-182, 750 for SNU-387, SNU-449, SNU-475 and SNU-423, and 1,000 for H661 and H1299. After overnight incubation, 10 μL of drug (1% DMSO in RPMI) at designed concentrations were added to the cells. The cells were then incubated for 16, 24, 48, 72, or 96 h at 37° C. in a humidified atmosphere of 5% CO2 before CellTiter-Glo reagent (10 μL) was dispensed to the wells. The cells were incubated at room temperature for a minimum of 10 min. After that, luminescence readings were recorded by a Microplate Reader (PHERAstar or Tecan Infinite M200 Pro) according to the manufacturer's instruction for measuring the luminescence.

CRBN = target: T1, CRBN (Homo sapiens, UniProt Q96SW2); test: Cellular Thermal Shift Assay (CETSA) in SNU-398 cell lysates; format: binding; conditions: from 51 to 56° C., read-out: overall thermal shift of CRBN
T1 construct: endogenous in cells; host or cells: SNU-398 cell lysate
Method: Cells were washed with cold PBS and harvested into 50 mL tubes and centrifuged at 1,200×g for 5 min. For cell lysis, cells were resuspended in 1× NP-40 lysis buffer containing 10 mM Tris-HCl (pH 7.4), 150 mM NaCl, 2.7 mM KCl and 0.4% NP-40, and rotated end-over-end at 4° C. for 30 min. The cell lysate was centrifuged at 20,000 rpm for 10 min at 4° C. and the supernatant was collected. The cell lysate was divided into two aliquots, with one aliquot being treated with QE-18-WG07, and the other aliquot with DMSO control. After specific incubation time at room temperature, the respective lysates were divided into smaller aliquots of 40 μL and heated individually at different temperatures (51-56° C.) for 3 min in a thermal cycler, followed by a 3-min cool-down at room temperature. The heated lysates were centrifuged at 15,000 rpm for 10 min at 4° C. to separate the soluble fractions from the precipitates. The supernatants were transferred to new microtubes and analyzed by SDS-PAGE, followed by western blot analysis described in Example 4. The integrated band intensities were quantified by ImageJ. The thermal curves were analyzed by nonlinear regression using Graph Pad Prism.

SALL4 (1-300aa) protein = target: T2, SALL4 (1-300aa) protein (Homo sapiens, UniProt Q9UJQ4); test: Thermal shift assay (TSA) with Sypro Orange; format: binding
T2 construct: SALL4 (1-300aa) cloned into this vector was expressed with the N-terminal 6-His tags; His6 (pET His6 TEV LIC vector 2B-T, TEV site) (N); made in house; host or cells: E. coli BL21 (DE3)/pLysS
T2 sequence (Q9UJQ4 1-300): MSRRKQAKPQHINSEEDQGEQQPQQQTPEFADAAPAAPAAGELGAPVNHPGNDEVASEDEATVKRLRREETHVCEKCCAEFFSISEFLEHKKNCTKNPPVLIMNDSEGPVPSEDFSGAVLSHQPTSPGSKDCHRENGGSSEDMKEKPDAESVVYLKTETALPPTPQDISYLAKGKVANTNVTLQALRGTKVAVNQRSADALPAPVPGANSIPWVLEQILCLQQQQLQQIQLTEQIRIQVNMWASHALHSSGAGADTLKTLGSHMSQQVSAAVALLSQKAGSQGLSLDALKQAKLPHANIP
Method: A library of 50,000 small molecules from the Novartis Biomedical Research Institute (NIBR) was screened at 50 μM and 100 μM against 13.8 μM of purified SALL4 (1-300aa) protein in the buffer containing potassium phosphate (100 mM) and NaCl (100 mM) at pH 7. Screening assay was performed in 384-well thin wall white PCR plates using LightCyler® 480 Real-Time PCR System (Roche Applied Sciences). A 7-min run was started at 30° C. and ended at 90° C. Sypro Orange was used as the sensitive fluorescent dye for monitoring thermal protein denaturation. Hits were defined as compounds that can induce a change in protein melting points 3 times higher than the standard deviations of the apo-protein melting point from DMSO control.
To experimentally assess the stoichiometry of the binding between SALL4 (1-300aa) and QE-18-WG07, the inventors titrated 13.8 μM of purified recombinant SALL4 (1-300aa) protein with 12 increasing concentrations of QE-18-WG07 and evaluated the dose-response correlation in the ΔTm shift by following the protocol for TSA in Example 7.

IKZF1 = target: T3, IKZF1 (Homo sapiens, UniProt Q13422); test: Immunoblot of IKZF1 in SNU-398 HCC cells; format: cell-based; conditions: SNU-398 cells
T3 construct: with immunoblots in SNU-398 HCC cells; endogenous in cells; host or cells: SNU-398 HCC cells
Method: as §1

IKZF3 = target: T4, IKZF3 (Homo sapiens, UniProt Q9UKT9); test: Immunoblot of IKZF3 in SNU-398 HCC cells; format: cell-based; conditions: SNU-398 cells
T4 construct: with immunoblots in SNU-398 HCC cells; endogenous in cells; host or cells: SNU-398 HCC cells
Method: as §1

[1] = QE-18-WG07 0.0061 μM, 30 min incubation
[2] = QE-18-WG07 0.0122 μM, 30 min incubation
[3] = QE-18-WG07 0.0488 μM, 30 min incubation
[4] = QE-18-WG07 0.0977 μM, 30 min incubation
[5] = QE-18-WG07 0.1953 μM, 30 min incubation
[6] = QE-18-WG07 0.7813 μM, 30 min incubation
[7] = QE-18-WG07 1.5625 μM, 30 min incubation
[8] = QE-18-WG07 3.1250 μM, 30 min incubation
[9] = QE-18-WG07 6.2500 μM, 30 min incubation
[10] = QE-18-WG07 12.5000 μM, 30 min incubation
[11] = QE-18-WG07 25.0000 μM, 30 min incubation
[12] = QE-18-WG07 50.0000 μM, 30 min incubation

T3 sequence (Q13422 whole entry): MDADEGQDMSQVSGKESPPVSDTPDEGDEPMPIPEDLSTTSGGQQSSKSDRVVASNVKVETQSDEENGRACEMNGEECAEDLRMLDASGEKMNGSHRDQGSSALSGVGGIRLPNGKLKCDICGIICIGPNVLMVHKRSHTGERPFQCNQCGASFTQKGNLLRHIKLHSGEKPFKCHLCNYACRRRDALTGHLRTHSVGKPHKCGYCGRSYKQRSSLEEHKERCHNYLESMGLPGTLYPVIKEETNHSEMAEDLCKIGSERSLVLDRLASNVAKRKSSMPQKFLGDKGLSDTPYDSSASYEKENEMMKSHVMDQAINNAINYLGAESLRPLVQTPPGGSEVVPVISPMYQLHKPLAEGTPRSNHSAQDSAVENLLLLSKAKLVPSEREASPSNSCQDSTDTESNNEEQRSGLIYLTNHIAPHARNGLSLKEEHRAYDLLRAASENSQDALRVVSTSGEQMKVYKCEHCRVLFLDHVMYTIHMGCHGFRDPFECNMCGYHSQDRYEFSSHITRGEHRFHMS
T1 sequence (Q96SW2 whole entry): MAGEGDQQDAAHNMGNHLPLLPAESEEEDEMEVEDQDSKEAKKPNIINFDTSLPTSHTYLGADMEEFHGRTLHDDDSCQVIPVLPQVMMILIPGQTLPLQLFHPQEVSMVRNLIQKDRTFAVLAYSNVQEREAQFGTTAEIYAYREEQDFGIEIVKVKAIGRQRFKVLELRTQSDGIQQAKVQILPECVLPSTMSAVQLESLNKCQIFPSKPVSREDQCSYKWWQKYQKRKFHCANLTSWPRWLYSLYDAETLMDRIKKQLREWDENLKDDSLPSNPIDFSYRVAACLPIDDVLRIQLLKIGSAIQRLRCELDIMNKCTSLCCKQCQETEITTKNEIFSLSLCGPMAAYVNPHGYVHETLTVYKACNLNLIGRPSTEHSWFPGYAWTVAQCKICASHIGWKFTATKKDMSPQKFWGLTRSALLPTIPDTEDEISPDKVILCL
T4 sequence (Q9UKT9 whole entry): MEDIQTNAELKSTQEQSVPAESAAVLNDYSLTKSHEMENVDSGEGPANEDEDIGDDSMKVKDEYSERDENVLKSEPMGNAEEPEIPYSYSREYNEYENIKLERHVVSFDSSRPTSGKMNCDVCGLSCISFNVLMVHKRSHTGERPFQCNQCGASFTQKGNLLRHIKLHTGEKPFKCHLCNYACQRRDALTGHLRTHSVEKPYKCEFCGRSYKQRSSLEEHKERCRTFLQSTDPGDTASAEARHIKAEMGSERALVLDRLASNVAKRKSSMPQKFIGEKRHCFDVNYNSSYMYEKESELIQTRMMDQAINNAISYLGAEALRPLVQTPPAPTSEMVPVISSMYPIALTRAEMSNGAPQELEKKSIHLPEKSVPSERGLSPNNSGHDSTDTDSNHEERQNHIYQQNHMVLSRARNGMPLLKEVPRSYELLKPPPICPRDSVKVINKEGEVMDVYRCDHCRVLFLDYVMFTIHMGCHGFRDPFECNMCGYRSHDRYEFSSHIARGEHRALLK

## COc1ccccc1NC(=O)Nc1ccc([N+](=O)[O-])cc1O [QE-18-WG07]
Cleaved PARP
  cleavage of PARP (apoptosis induction): prominent cleavage of PARP
H661 cells; NCI-H661, 72 h, achieved at 1 μM, read-out: maximum growth inhibition Emax
  Emax at 1 µM: 90 to 100%
H661 cells; NCI-H661, 72 h, read-out: IC50 of cell viability
  IC50: 522 nM
H661 cells; NCI-H661, 72 h cell viability, read-out: half maximal growth inhibition EC50
  EC50: 420 nM
CRBN
  ΔTm at 50 µM: ≤ 5 °C
SALL4 (1-300aa) protein; 13.8 μM SALL4 (1-300aa), 30 min incubation
  concentration at which ΔTm saturation occurs: ≥ 12.5 µM
SALL4 (1-300aa) protein; [1]
  SALL4 (1-300) Melting Temperature Shift (° C.) Rep 1: −0.357 °C
  SALL4 (1-300) Melting Temperature Shift (° C.) Rep 2: −0.357 °C
SALL4 (1-300aa) protein; [2]
  SALL4 (1-300) Melting Temperature Shift (° C.) Rep 1: −0.267 °C
  SALL4 (1-300) Melting Temperature Shift (° C.) Rep 2: −0.267 °C
SALL4 (1-300aa) protein; [3]
  SALL4 (1-300) Melting Temperature Shift (° C.) Rep 1: −0.077 °C
  SALL4 (1-300) Melting Temperature Shift (° C.) Rep 2: −0.357 °C
SALL4 (1-300aa) protein; [4]
  SALL4 (1-300) Melting Temperature Shift (° C.) Rep 1: −0.357 °C
  SALL4 (1-300) Melting Temperature Shift (° C.) Rep 2: −0.357 °C
SALL4 (1-300aa) protein; [5]
  SALL4 (1-300) Melting Temperature Shift (° C.) Rep 1: −0.267 °C
  SALL4 (1-300) Melting Temperature Shift (° C.) Rep 2: −0.267 °C
SALL4 (1-300aa) protein; [6]
  SALL4 (1-300) Melting Temperature Shift (° C.) Rep 1: −0.167 °C
  SALL4 (1-300) Melting Temperature Shift (° C.) Rep 2: −0.167 °C
SALL4 (1-300aa) protein; [7]
  SALL4 (1-300) Melting Temperature Shift (° C.) Rep 1: 0.503 °C
  SALL4 (1-300) Melting Temperature Shift (° C.) Rep 2: 0.503 °C
SALL4 (1-300aa) protein; [8]
  SALL4 (1-300) Melting Temperature Shift (° C.) Rep 1: 0.413 °C
  SALL4 (1-300) Melting Temperature Shift (° C.) Rep 2: 0.793 °C
SALL4 (1-300aa) protein; [9]
  SALL4 (1-300) Melting Temperature Shift (° C.) Rep 1: 0.703 °C
  SALL4 (1-300) Melting Temperature Shift (° C.) Rep 2: 0.703 °C
SALL4 (1-300aa) protein; [10]
  SALL4 (1-300) Melting Temperature Shift (° C.) Rep 1: 1.373 °C
  SALL4 (1-300) Melting Temperature Shift (° C.) Rep 2: 1.083 °C
SALL4 (1-300aa) protein; [11]
  SALL4 (1-300) Melting Temperature Shift (° C.) Rep 1: 1.273 °C
  SALL4 (1-300) Melting Temperature Shift (° C.) Rep 2: 1.273 °C
SALL4 (1-300aa) protein; [12]
  SALL4 (1-300) Melting Temperature Shift (° C.) Rep 1: 1.273 °C
  SALL4 (1-300) Melting Temperature Shift (° C.) Rep 2: 0.983 °C
SALL4 (1-300aa) protein; SALL4(1-300) melting temperature shift, mean ± SD (n = 2), [compound] = 100 μM, 30 min
  ΔTm at 100 µM: 1.15 ± 0.01 °C
SALL4 (1-300aa) protein; [compound] = 100 μM, 30 min
  Thermal Shift Assay Type: Positive shifter
IKZF1
  degradation of IKZF1: did not degrade
IKZF3
  degradation of IKZF3: did not degrade

Reference: patent publication US20240335429A1, “MOLECULAR GLUE AND SALL4 DEGRADER” (National University of Singapore, priority 2021, published 2024)
